In ChEMBL document CHEMBL1201862, “PubChem BioAssay data set” (2004):
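Where inhibition never reached the appropriate level, the endpoint shown equals the highest concentration tested. Otherwise, values were interpolated linearly from a five-concentration, 48-hour dose response in 96-well plates. GI50: concentration for 50% inhibition of growth.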 Activity calls are given as the source filed them. Cut-off read from the data, not from the text of the source: active = GI50 up to about 1.1 µM and inactive = higher.

Key:
Assay in all cases: growth of human tumour cells (NCI), 48 h
HOP-92 = system: HOP-92
M19-MEL = system: M19-MEL
786-0 = system: 786-0
HL-60 = system: HL-60
IGROV-1 = system: IGROV-1
HCT-15 = system: HCT-15
SF-268 = system: SF-268
M14 = system: M14
SNB-19 = system: SNB-19
XF498 = system: XF498
UACC-257 = system: UACC-257
OVCAR-8 = system: OVCAR-8
LXFL 529 = system: LXFL 529
DMS-273 = system: DMS-273
RPMI-8226 = system: RPMI-8226
DLD-1 = system: DLD-1
U-251 = system: U-251
UACC-62 = system: UACC-62
SK-MEL-28 = system: SK-MEL-28
NCI-H23 = system: NCI-H23
MOLT-4 = system: MOLT-4
OVCAR-4 = system: OVCAR-4
RXF 631 = system: RXF 631
SNB-78 = system: SNB-78
HOP-18 = system: HOP-18
TK-10 = system: TK-10
ACHN = system: ACHN
SN12C = system: SN12C
COLO 205 = system: COLO 205
RXF 393 = system: RXF 393
OVCAR-3 = system: OVCAR-3
HCT-116 = system: HCT-116
A498 = system: A498
K562 = system: K562
OVCAR-5 = system: OVCAR-5
KM-20L2 = system: KM-20L2
HT-29 = system: HT-29
CCRF-CEM = system: CCRF-CEM
A549 = system: A549
NCI-H460 = system: NCI-H460
HCC 2998 = system: HCC 2998
SR = system: SR
SK-MEL-5 = system: SK-MEL-5
KM12 = system: KM12
Malme-3M = system: Malme-3M
HOP-62 = system: HOP-62
SW-620 = system: SW-620
CAKI-1 = system: CAKI-1
SF-295 = system: SF-295
NCI-H522 = system: NCI-H522
LOX IMVI = system: LOX IMVI
SF-539 = system: SF-539
EKVX = system: EKVX
SK-OV-3 = system: SK-OV-3
DMS-114 = system: DMS-114
UO-31 = system: UO-31
SNB-75 = system: SNB-75
NCI-H226 = system: NCI-H226
SK-MEL-2 = system: SK-MEL-2

Measured: GI50

COC1OC(CO)C(O)C(O)C1Br (stereo not given)
inactive: HOP-92 > 100 µM | M19-MEL > 100 µM | 786-0 > 100 µM | HL-60 > 100 µM | IGROV-1 > 100 µM | SF-268 > 100 µM | M14 > 100 µM | SNB-19 > 100 µM | XF498 > 100 µM | UACC-257 > 100 µM | OVCAR-8 > 100 µM | LXFL 529 > 100 µM | DMS-273 > 100 µM | RPMI-8226 > 100 µM | DLD-1 > 100 µM | U-251 > 100 µM | UACC-62 > 100 µM | SK-MEL-28 > 100 µM | NCI-H23 > 100 µM | MOLT-4 > 100 µM | OVCAR-4 > 100 µM | RXF 631 > 100 µM | SNB-78 > 100 µM | HOP-18 > 100 µM | TK-10 > 100 µM | ACHN > 100 µM | SN12C > 100 µM | COLO 205 > 100 µM | RXF 393 > 100 µM | OVCAR-3 > 100 µM | HCT-116 > 100 µM | A498 > 100 µM | K562 > 100 µM | OVCAR-5 > 100 µM | KM-20L2 > 100 µM | HT-29 > 100 µM | CCRF-CEM > 100 µM | A549 > 100 µM | NCI-H460 > 100 µM | HCC 2998 > 100 µM | SR > 100 µM | SK-MEL-5 > 100 µM | KM12 > 100 µM | Malme-3M > 100 µM | HOP-62 > 100 µM | SW-620 > 100 µM | CAKI-1 > 100 µM | SF-295 > 100 µM | NCI-H522 > 100 µM | LOX IMVI > 100 µM | SF-539 > 100 µM
> 100 µM: HCT-15

Cc1cc(N(CCC#N)CCC#N)ccc1/C=C(\N=[N+]=[N-])C(=O)NC(=O)COc1ccccc1
inactive: HOP-92 > 100 µM | 786-0 > 100 µM | HL-60 > 100 µM | IGROV-1 > 100 µM | SF-268 > 100 µM | M14 > 100 µM | SNB-19 > 76.6 µM | XF498 34.7 µM | UACC-257 > 100 µM | OVCAR-8 > 81.1 µM | LXFL 529 > 100 µM | DMS-273 > 100 µM | EKVX > 100 µM | RPMI-8226 > 100 µM | DLD-1 > 100 µM | U-251 > 67.8 µM | UACC-62 > 100 µM | SK-MEL-28 > 100 µM | NCI-H23 > 100 µM | MOLT-4 > 100 µM | OVCAR-4 > 100 µM | RXF 631 > 100 µM | SNB-78 > 61.7 µM | HOP-18 > 100 µM | TK-10 > 100 µM | ACHN > 100 µM | SN12C > 100 µM | COLO 205 > 100 µM | RXF 393 > 46.3 µM | SK-OV-3 > 100 µM | OVCAR-3 > 100 µM | HCT-116 > 100 µM | A498 > 100 µM | K562 > 100 µM | OVCAR-5 > 100 µM | KM-20L2 > 100 µM | HT-29 > 100 µM | CCRF-CEM > 100 µM | DMS-114 > 100 µM | A549 > 100 µM | NCI-H460 > 100 µM | HCC 2998 > 100 µM | UO-31 > 100 µM | SR > 100 µM | SK-MEL-5 > 100 µM | KM12 > 100 µM | Malme-3M > 100 µM | HOP-62 > 100 µM | SNB-75 > 44 µM | SW-620 > 100 µM | CAKI-1 > 100 µM | NCI-H226 > 100 µM | SK-MEL-2 > 73.3 µM | SF-295 > 61.7 µM | NCI-H522 > 100 µM | LOX IMVI > 100 µM | SF-539 > 67.1 µM
> 100 µM: HCT-15
